7 compounds from patent US5434182A (priority 1993, dated 1995) can be followed below.

“And” between values parts separate entries of the source, which are not always exact repeats. Equal entries are not always repeated. “Also recorded” adds a separate entry of the source. Where two headings read alike, the source gives them in different places.

The subject of data set [1] is VSV. Nature of the data set: microbe, parasite or virus in culture. The format is cell-based, vesicular stomatitis virus strain Indiana. Particulars: for minimal effective concentration: read-out: Lowest concentration causing ≥3.0 log10 reduction in virus titer.
Data set [2] has as its system HSV-1. The format is cell-based, herpes simplex virus type 1 strain MacIntyre.
Data set [3] relates to Group B streptococcus. Nature of the data set: Inactivation of bacteria by monoglycerides, Group B streptococcus. The format is cell-based. The note with it: 2 mg/ml, read-out: Reduction of bacterial concentration, Group B streptococcus.
The subject of data set [4] is VSV. Nature of the data set: microbe, parasite or virus in culture. The format is cell-based, vesicular stomatitis virus.
The subject of data set [5] is HSV-1. Nature of the data set: microbe, parasite or virus in culture. Particulars: Human alphaherpesvirus 1, 0.5 h; 0.25 mg/ml, 37° C., 30 min; read-out: Reduction of virus titer, HSV-1. It is filed as cell-based, herpes simplex virus type 1 strain MacIntyre.
In data set [6] the test system is VSV. The data set can be described thus: microbe, parasite or virus in culture. It is filed as cell-based, vesicular stomatitis virus. The note with it: for log reduction at 15000 µM: Vesicular stomatitis virus.
Data set [7] deals with sperm. Nature of the data set: Spermicidal test: motility and viability of sperm in semen. The format is cell-based. The note with it: for viability at 100000 µM / viability at 150000 µM: Homo sapiens, Sperm. The method, then:
The fatty acids and derivatives thereof disclosed here are useful as spermicides and in the treatment of sexually transmitted diseases. […] Four samples tested were comprised as follows:
Five test tubes were prepared, one for each of Samples A to D and a Control. An amount of 0.5 ml of active semen was added to each test tube. Each of Samples A and B and the Control was at 37° C., and Samples C and D were at room temperature. The percentages of motility and viability were measured from 15 seconds to 5 minutes in the case of each of Samples A to D and from 15 seconds to 2 hours for the Control.

The subject of data set [8] is Total White Blood Cells. Nature of the data set: Stability of white blood cells in whole human blood to added lipid. It is filed as cell-based. The arrangement: unit not given here. The note with it: 15 mM, control 6.4. From the text:
Further testing has shown the effect of monoglyceride esters and ether on the total white blood cell concentration in whole human blood.

For data set [9], the system named is poliovirus. It is filed as cell-based, Poliovirus type 1 strain Chat. The note with it: 8 mg/ml, 37° C., 30 min; control 10^4.7 TCID50.
In data set [10] the test system is VSV. Nature of the data set: microbe, parasite or virus in culture. The format is cell-based, vesicular stomatitis virus strain Indiana. The note with it: Vesicular stomatitis virus, 0.5 h; for minimal effective concentration: read-out: lowest concentration which reduced the VSV titer by ≥4.0 log10 units.
The subject of data set [11] is Visna virus. Nature of the data set: microbe, parasite or virus in culture. Particulars: Visna-maedi virus, 0.5 h, 37° C., 30 min, read-out: Reduction of virus titer, VV (visna virus). It is filed as cell-based, Visna virus strain K796.
For data set [12], the system named is HSV-1. The data set can be described thus: microbe, parasite or virus in culture. The format is cell-based, herpes simplex virus type 1 strain MacIntyre. The note with it: Human alphaherpesvirus 1, 0.5 h, 37° C., 30 min, read-out: Reduction of virus titer, HSV-1.
For data set [13], the system named is enveloped viruses. It is filed as cell-based.
Data set [14] deals with VSV. Nature of the data set: microbe, parasite or virus in culture. Particulars: for effect on viral particles (electron micrographs): 37° C., 30 min. The format is cell-based, vesicular stomatitis virus strain Indiana.
In data set [15] the test system is sheep fibroblasts. The data set can be described thus: Disintegration of cell membranes, sheep fibroblasts (scanning electron microscopy). The note with it: 1 mg/ml, 37° C., 30 min.
In data set [16] the test system is Vero cells. Nature of the data set: Disintegration of cell membranes, Vero cells (scanning electron microscopy). The note with it: 1 mg/ml, 37° C., 30 min.
Where [17] appears, read: Vesicular stomatitis virus, 0.5 h.
Where [18] appears, read: Vesicular stomatitis virus, 0.5 h, read-out: Reduction of virus titer, VSV.
[19] abbreviates: read-out: Reduction of virus titer, VSV.

For orientation: viability means the share of living cells, or the viability signal relative to a control.

In the case of `CCCCCCCCCCCC(=O)OCC(O)CO` (racemic) [Monolaurin (12:0), 1-Monolauroyl-rac-glycerol], the minimal effective concentration in data set [1] (setting [17]) was 250 µg/mL and 900 µM. Also, the log reduction at 250 µg/mL is not below 4 in data set [1] (setting [18]) and not below 3.7 in data set [5]. Also, the “active concentration relative to corresponding free acids” value in data set [1] (monoglyceride vs free acid) is reported as “ten times lower”. In addition, the “Reduction of HSV-L titer” value in data set [2] (incubation 0.5 min), in [2] (incubation 1 min), in data set [2] (incubation 5 min), in [2] (incubation 10 min) and in data set [2] (incubation 30 min) was not below 4.0 in each case. Also, the log reduction at 2000 µg/mL in [3] was determined as 4.5. Also, the “dependence of viral killing on sodium taurocholate” value in data set [4] (VSV, human serum) is listed as “only takes place when sodium taurocholate is present”. For the same compound, the log reduction at 3000 µM in data set [4] (Vesicular stomatitis virus, read-out: Reduction in VSV Titer, 3 mM, 10 mM sodium taurocholate, human serum) was not below 5; in data set [4] (Vesicular stomatitis virus, read-out: Reduction in VSV Titer, 3 mM, no sodium taurocholate, human serum), 0. In addition, the log reduction at 4000 µM was not below 5 in [4] (Vesicular stomatitis virus, read-out: Reduction in VSV Titer, 4 mM, 10 mM sodium taurocholate, human serum) and 0 in [4] (Vesicular stomatitis virus, read-out: Reduction in VSV Titer, 4 mM, no sodium taurocholate, human serum). In addition, the log reduction at 5000 µM in data set [4] (Vesicular stomatitis virus, read-out: Reduction in VSV Titer, 5 mM, 10 mM sodium taurocholate, human serum) was not below 5; in data set [4] (Vesicular stomatitis virus, read-out: Reduction in VSV Titer, 5 mM, no sodium taurocholate, human serum) it was 0. Moreover, in data set [4] (Vesicular stomatitis virus, read-out: Reduction in VSV Titer, 7.5 mM, 10 mM sodium taurocholate, human serum (Table 18)), the log reduction at 7500 µM was not below 5. Moreover, the log reduction at 15000 µM in data set [4] (Vesicular stomatitis virus, read-out: Reduction in VSV Titer, 15 mM, 10 mM sodium taurocholate, human serum) was not below 5. In data set [4] (in the presence of 10 mM sodium taurocholate), the “concentration as low as which kills VSV” value was determined as 3 mM.

As to `CCCCCCCCOC[C@@H](O)CO` [1-O-Octyl-sn-glycerol, 1-O-octyl-sn-glycerol], in data set [6] (5 mM, with 10 mM sodium taurocholate, human plasma, 37° 30 min), the “Reduction in VSV titer” value was not below 4.0 Log10. The log reduction at 15000 µM is 0 in data set [6] (2.5 min, read-out: Reduction in VSV Titer, 15 mM, 2.5 min, 37°, human plasma); not below 4 in data set [6] (5 min, read-out: Reduction in VSV Titer, 15 mM, 5 min, 37°, human plasma); not below 4 in [6] (10 min, read-out: Reduction in VSV Titer, 15 mM, 10 min, 37°, human plasma); not below 4 in data set [6] (0.25 h, read-out: Reduction in VSV Titer, 15 mM, 15 min, 37°, human plasma); not below 4 in [6] (0.5 h, read-out: Reduction in VSV Titer, 15 mM, 30 min, 37°, human plasma); not below 4 in data set [6] (0.5 h, read-out: Reduction in VSV Titer, 15 mM, no sodium taurocholate, human plasma, 37° 30 min). The “antiviral activity of MG ethers relative to esters, in words” value in data set [6] (human plasma, listed as 8 carbon MG ether) was “just as effective as the naturally occurring esters; also recorded: somewhat more antiviral than the 8 carbon ester”. In addition, the “% mot.” value in data set [7] (100 mM in semen, 15 sec., Sample B 37° C., Sample D room temperature) stood at 0%; in [7] (100 mM in semen, 30 sec., Sample B 37° C., Sample D room temperature) it was 0%; in [7] (100 mM in semen, 1 min., Sample B 37° C., Sample D room temperature), 0%; in data set [7] (100 mM in semen, 2 min., Sample B 37° C., Sample D room temperature) it was 0%; in data set [7] (100 mM in semen, 3 min., Sample B 37° C., Sample D room temperature), 0%; in [7] (100 mM in semen, 5 min., Sample B 37° C., Sample D room temperature) it was 0%. Besides, the “% mot.” value in data set [7] (150 mM in semen, 15 sec., Sample A 37° C., Sample C room temperature) was 0%; in [7] (150 mM in semen, 30 sec., Sample A 37° C., Sample C room temperature) it was 0%; in data set [7] (150 mM in semen, 1 min., Sample A 37° C., Sample C room temperature), 0%; in data set [7] (150 mM in semen, 2 min., Sample A 37° C., Sample C room temperature), 0%; in [7] (150 mM in semen, 3 min., Sample A 37° C., Sample C room temperature), 0%; in data set [7] (150 mM in semen, 5 min., Sample A 37° C., Sample C room temperature) it was 0%. In addition, in data set [7] (A, C 150 mM, B 100 mM in semen), the “time within which 0% viability was effected” value is not above 3 min. Further, in [7] (A, C 150 mM, B 100 mM in semen), the “time within which sperm cells were rendered immobile” value is not above 15 s. Besides, the coating of sperm result in data set [7] (A, C 150 mM, B, D 100 mM in semen, 30 minutes) is “coated the sperm effectively”. Moreover, the viability at 100000 µM in data set [7] (0.05 h, 100 mM in semen, 3 min., Sample B 37° C.) amounted to 0%; in [7] (5 min, 100 mM in semen, Sample B 37° C., Sample D room temperature), 0%. The viability at 150000 µM came to 0% in data set [7] (0.05 h, 150 mM in semen, 3 min., Sample A 37° C., Sample C room temperature) and 0% in data set [7] (5 min, 150 mM in semen, Sample A 37° C., Sample C room temperature). In data set [8], the “Total White Blood Cells” value stood at 0.6.

`CCCCC/C=C\C/C=C\CCCCCCCC(=O)OC[C@@H](O)CO` [Monolinolein (18:2), Monolinolein]: the minimal effective concentration in data set [1] (setting [17]) is 250 µg/mL and 700 µM. Further, the log reduction at 250 µg/mL in data set [1] (setting [18]) was not below 4. In addition, the “concentration relative to monocaprin for same reduction in viral titer” value in [1] (maintenance medium, millimolar) was “one-third the concentration”. Moreover, the log reduction at 2000 µg/mL in data set [3] came to 4.5.

Turning to `CCCCCCCCCCCC(=O)O` [Lauric (12:0), Lauric], the “reduction of poliovirus titer” value in [9] is reported as “did not cause a significant reduction of virus titer”. Further, the log reduction at 2000 µg/mL in [10] (setting [19]) is not below 4; in data set [11] (2 mg/ml) it was not below 3.2; in data set [12] (2 mg/ml) it was not below 4. The minimal effective concentration in data set [10] is 2000 µg/mL and 10000 µM. Moreover, the “antiviral activity in words” value in data set [13] is recorded as “showed activity”.

Regarding `CCCCCCCCCCCCCC(=O)O` [Myristic (14:0), Myristic], the “reduction of poliovirus titer” value in [9] was “did not cause a significant reduction of virus titer”. The log reduction at 4000 µg/mL in data set [10] (setting [19]) is not below 4; in data set [11] (4 mg/ml), 1.7; in data set [12] (4 mg/ml), not below 4. In addition, the minimal effective concentration in data set [10] is 4000 µg/mL and 16000 µM. Also, in [13], the “antiviral activity in words” value is “showed activity”.

As for `CCCCC/C=C\C/C=C\CCCCCCCC(=O)O` [Linoleic (18:2), linoleic acid], the “reduction of poliovirus titer” value in data set [9] is given as “did not cause a significant reduction of virus titer”. The results for the “effect on viral particles (electron micrographs)” value in data set [14] (0.5 mg/ml) and in data set [14] (1 mg/ml) were “leakage of viral envelopes was produced” and “particle disintegration”, respectively. Besides, in data set [14] (Vesicular stomatitis virus, 0.5 h, read-out: reduction in virus titer, 0.5 mg/ml, samples used for electron microscopy), the log reduction at 500 µg/mL came out at 1. The log reduction at 1000 µg/mL is not below 3 in [14] (Vesicular stomatitis virus, 0.5 h, read-out: reduction in virus titer, 1 mg/ml, samples used for electron microscopy); not below 4 in [10] (setting [19]); not below 3.2 in data set [11] (1 mg/ml); not below 4 in data set [12] (1 mg/ml). The “effect on cell membranes” value in data set [15] and in data set [16] was “the cell membranes were partly or completely disintegrated” in each case. Besides, the minimal effective concentration in data set [10] was 1000 µg/mL and 3500 µM.

`CCCCCCCCCCCCCC(=O)OCC(O)CO` (stereo not drawn) [Monomyristin (14:0), Monomyristin]: the minimal effective concentration in data set [1] (setting [17]) was 2000 µg/mL and 13000 µM. The log reduction at 2000 µg/mL in data set [1] (setting [18]) worked out at 3. For the same compound, the “antiviral activity in words” value in data set [13] was “consistently less active”.
